Patent US20020028938A1, “Prostaglandin endoperoxide H synthase biosynthesis inhibitors” (priority 1997, published 2002)

How the values were obtained:
[1] = target: T1, recombinant human Cox-1 (r-hu Cox1) (Homo sapiens, UniProt P23219); assay: Recombinant human PGHS-1 enzyme assay (RHUCX1); type: biochemical; details: for inhibition at 100 µM / inhibition at 10 µM: read-out: RHUCX1 % Inh. at Dose
T1 construct: made in house; host or cells: baculovirus/Sf9 insect cells (microsomes)
How it was run: (§1)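 PGE2 by EIA (optical density) → % inhibition vs control-group mean → IC50 from linear regression.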

[2] = target: T2, recombinant human Cox-2 (r-hu Cox-2) (Homo sapiens, UniProt P35354); assay: Recombinant human PGHS-2 enzyme assay (RHUCX2); type: biochemical; details: for IC50: read-out: RHUCX2 IC50 (parenthetical value); for inhibition at 0.01 µM / inhibition at 0.1 µM / inhibition at 1 µM: read-out: RHUCX2 % Inh. at Dose
T2 construct: made in house; host or cells: baculovirus/Sf9 insect cells (microsomes)
T2 sequence (P35354 18-604): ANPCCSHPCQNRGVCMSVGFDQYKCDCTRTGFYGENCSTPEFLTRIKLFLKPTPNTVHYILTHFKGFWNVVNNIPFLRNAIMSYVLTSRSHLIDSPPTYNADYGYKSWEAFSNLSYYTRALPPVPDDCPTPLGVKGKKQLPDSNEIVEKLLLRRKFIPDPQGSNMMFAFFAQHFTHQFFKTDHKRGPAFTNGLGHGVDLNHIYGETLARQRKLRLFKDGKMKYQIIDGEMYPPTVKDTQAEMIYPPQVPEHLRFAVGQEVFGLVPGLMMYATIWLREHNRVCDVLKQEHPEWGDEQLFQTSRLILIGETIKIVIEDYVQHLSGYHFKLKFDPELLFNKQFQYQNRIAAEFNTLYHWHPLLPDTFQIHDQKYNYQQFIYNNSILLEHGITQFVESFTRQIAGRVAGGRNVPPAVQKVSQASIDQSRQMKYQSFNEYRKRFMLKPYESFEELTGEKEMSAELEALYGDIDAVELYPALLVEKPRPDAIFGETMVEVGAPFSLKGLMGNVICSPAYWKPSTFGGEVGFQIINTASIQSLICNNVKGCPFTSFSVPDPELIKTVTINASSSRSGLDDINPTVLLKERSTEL
How it was run: as §1

[3] = target: T3, human amnionic whole cell cyclooxygenase-2 (WISH cells) (Homo sapiens, UniProt P35354); assay: IL-1β induced PGE2 production in WISH cells; type: cell-based; details: read-out: Wish IC50 (parenthetical value)
T3 construct: endogenous in cells; host or cells: human amnionic WISH cells, induced with IL-1beta
T3 sequence (P35354 18-604): T2 sequence (P35354 18-604)
How it was run: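 PGE2 was quantified by enzyme immunoassay (optical density read) against standards made up in the matching medium. WISH cells at 80% confluence, washed and placed in serum-free Neuman-Tytell medium, received 5 ng/ml IL-1β plus test compound or DMSO vehicle (0.01% v/v).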

[4] = system: air pouch prostaglandin biosynthesis (Cox-2); assay: Carrageenan induced air pouch prostaglandin biosynthesis model (CAP); type: in vivo, rat; details: 3 mpk, rat; for inhibition in vivo at 3 mg/kg: 4 h, read-out: CAP % Inhib. @ 3 mpk
Description: To compare the mean responses of the treatment groups, analysis of variance was applied. Percent inhibition values were determined by comparing the individual treatment mean values to the mean of the control group. Linear regression was used to estimate IC50's/ED50's in appropriate assays.
Carrageenan induced air pouch prostaglandin biosynthesis model (CAP) Air pouches are formed in the backs of male Sprague Dawley rats by injecting 20 mL of sterile air on day 0. Three days later the pouch was reinflated with an additional 10 mL of sterile air. On day 7, 1 mL of saline containing 0.2 % lambda carrageenan (Sigma Chemical Co.) is injected into the pouch to induce the inflammatory reaction that is characterized by the release of prostaglandins. Test compounds are dosed at 0.1 to 10 mg/kg 30 minutes prior to carrageenan. Four hours after the carrageenan injection the pouch is lavaged and levels of prostaglandins are determined by enzyme immuno-assay using commercially available kits. […] Values for Cox-2 inhibition that are parenthetical indicate ED50 values.

T1 sequence (P23219 24-599): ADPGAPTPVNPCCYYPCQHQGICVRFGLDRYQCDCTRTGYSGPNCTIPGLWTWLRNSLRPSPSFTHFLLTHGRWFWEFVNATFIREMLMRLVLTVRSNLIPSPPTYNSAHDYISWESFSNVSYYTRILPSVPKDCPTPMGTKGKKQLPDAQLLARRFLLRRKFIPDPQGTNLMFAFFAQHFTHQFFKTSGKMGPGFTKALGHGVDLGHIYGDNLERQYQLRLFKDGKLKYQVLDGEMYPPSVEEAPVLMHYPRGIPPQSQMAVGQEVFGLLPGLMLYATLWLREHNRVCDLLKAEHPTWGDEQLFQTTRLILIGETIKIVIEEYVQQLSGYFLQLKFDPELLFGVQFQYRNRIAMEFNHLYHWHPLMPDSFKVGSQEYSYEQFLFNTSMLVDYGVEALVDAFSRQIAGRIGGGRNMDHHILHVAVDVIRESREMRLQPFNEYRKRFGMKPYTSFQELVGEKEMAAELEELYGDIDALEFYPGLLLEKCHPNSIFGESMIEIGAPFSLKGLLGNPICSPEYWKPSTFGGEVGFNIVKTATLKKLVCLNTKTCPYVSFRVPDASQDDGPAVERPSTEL

Row | RHUCX1 % Inh. at Dose (μM) ([1]; 100 μM) | RHUCX2 % Inh. at Dose (μM) ([2]; 0.01 μM) | RHUCX2 % Inh. at Dose (μM) ([2]; 0.1 μM) | RHUCX2 % Inh. at Dose (μM) ([2]; 1 μM) | IC50 [3] | melting point | inhibition at 100 µM ([1]; 100 μM) | IC50 [2] | inhibition at 0.01 µM ([2]; 0.01 μM) | inhibition at 0.1 µM ([2]; 0.1 μM) | inhibition at 1 µM ([2]; 1 μM) | inhibition at 10 µM [1] | Molecule | CAP % Inhib. @ 3 mpk [4] | inhibition in vivo at 3 mg/kg [4]
1 | 29 @ 100% | 22 @ 0.01% | 40 @ 0.1% | 87 @ 1% | 50 nM |  |  |  |  |  |  |  | 2-(2,3,3-Trifluorophenyl)-4-(4-fluorophenyl)-5-[4-(aminosulfonyl)phenyl]-3(2H)-pyridazinone [Example 450] | 86% | 
2 |  |  |  |  | 30 nM | 161 to 163 °C |  |  |  |  |  |  | CS(=O)(=O)c1ccc(-c2cnn(-c3ccc(F)c(F)c3)c(=O)c2Cc2cccc(F)c2)cc1 [Example 243, 2-(3,4-Difluorophenyl)-4-(3-fluorobenzyl)-5-[4-(methylsulfonyl)phenyl]-3(2H)-pyridazinone] |  | 7%
3 |  |  |  |  |  | 55 to 58 °C | 0% | 40 nM |  |  |  |  | CC(C)CCc1c(-c2ccc(S(C)(=O)=O)cc2)cnn(-c2ccc(F)c(Cl)c2)c1=O [Example 257, 2-(3-Chloro-4-fluorophenyl)-4-(3-methylbutyl)-5-[4-(methylsulfonyl)phenyl]-3(2H)-pyridazinone] |  | 60%
4 |  |  |  |  |  | 116 to 117 °C | 14% |  | 48% | 76% | 94% |  | CC(C)COc1c(-c2ccc(S(C)(=O)=O)cc2)cnn(-c2ccc(F)c(F)c2)c1=O [Example 346, 2-(3,4-Difluorophenyl)-4-(2-methylpropoxy)-5-[4-(methylsulfonyl)phenyl]-3(2H)-pyridazinone] |  | 49.5%
5 |  |  |  |  |  | 100 to 102 °C | 3% |  | 42% | 63% | 91% |  | CCC(C)CCOc1c(-c2ccc(S(C)(=O)=O)cc2)cnn(-c2ccc(F)c(F)c2)c1=O (stereo not shown) [Example 351, 2-(3,4-Difluorophenyl)-4-(3-methylpentyloxy)-5-[4-(methylsulfonyl)phenyl]-3(2H)-pyridazinone] |  | 0%
6 |  |  |  |  |  | 80 to 85 °C | 91% |  | 34% | 77% | 93% | 35% | CC(C)COc1c(-c2ccc(S(N)(=O)=O)cc2)cnn(-c2cccc(Cl)c2)c1=O [Example 395, 2-(3-Chlorophenyl)-4-(2-methylpropoxy)-5-[4-(aminosulfonyl)phenyl]-3(2H)-pyridazinone] |  | 71%
7 |  |  |  |  |  | 154 to 156 °C | 90% | 198 nM |  |  |  | 61% | CC(C)CCc1c(-c2ccc(S(N)(=O)=O)cc2)cnn(-c2ccc(F)c(Cl)c2)c1=O [Example 405, 2-(3-Chloro-4-fluorophenyl)-4-(3-methylbutyl)-5-[4-(aminosulfonyl)phenyl]-3(2H)-pyridazinone] |  | 53%
8 |  |  |  |  |  | 224 to 226 °C | 32% | 170 nM |  |  |  |  | NS(=O)(=O)c1ccc(-c2cnn(-c3ccc(F)c(F)c3)c(=O)c2Oc2ccc(F)cc2)cc1F [Example 407] |  | 61%
9 |  |  |  |  |  | 124 to 128 °C | 12% | 100 nM |  |  |  |  | CS(=O)(=O)c1ccc(-c2cnn(-c3cccc(Cl)c3)c(=O)c2OCCC2CC2)cc1 [Example 419, 2-(3-Chlorophenyl)-4-(2-cyclopropane-1-ethoxy)-5-[4-(methylsulfonyl)phenyl]-3(2H)-pyridazinone] |  | 48%

Row | Molecule | RHUCX1 % Inh. at Dose (μM) ([1]; 100 μM) | RHUCX2 % Inh. at Dose (μM) ([2]; 0.01 μM) | RHUCX2 % Inh. at Dose (μM) ([2]; 0.1 μM) | RHUCX2 % Inh. at Dose (μM) ([2]; 1 μM) | IC50 [3] | melting point | inhibition at 100 µM ([1]; 100 μM) | IC50 [2] | inhibition at 0.01 µM ([2]; 0.01 μM) | inhibition at 0.1 µM ([2]; 0.1 μM) | inhibition at 1 µM ([2]; 1 μM) | inhibition at 10 µM [1] | CAP % Inhib. @ 3 mpk [4] | inhibition in vivo at 3 mg/kg [4]
10 | COC(C)CCOc1c(-c2ccc(S(C)(=O)=O)cc2)cnn(-c2ccc(F)c(F)c2)c1=O (stereo not shown) [Example 353, 2-(3,4-Difluorophenyl)-4-[3-(methoxy)butoxy]-5-[4-(methylsulfonyl)phenyl]-3(2H)-pyridazinone] |  |  |  |  |  | 99 to 101 °C | 6% | 826 nM |  |  |  |  |  | 0%
